Results reported in paper PMC8453848, “Effect of GLPG1205, a GPR84 Modulator, on CYP2C9, CYP2C19, and CYP1A2 Enzymes: In Vitro and Phase 1 Studies” (Clinical Pharmacology in Drug Development, 2021).
Like-named read-outs stand apart in the source and are kept apart here. Blank lines part the entries; values can stand above or below the compound they belong to.

Experiments:
CYP2C9 = CYP2C9 (Homo sapiens, UniProt P11712); details: for AUC0‐inf: arithmetic mean (CV%); for tmax: median (min‐max)
CYP2C19 = CYP2C19 (Homo sapiens, UniProt P33261); test: Phase 1 drug-drug interaction study: PK of omeprazole and 5-hydroxyomeprazole with placebo or GLPG1205; details: for tmax: median (min‐max); for AUC: male, plasma, oral, arithmetic mean (CV%)
Chain of CYP2C19 (P33261 whole entry): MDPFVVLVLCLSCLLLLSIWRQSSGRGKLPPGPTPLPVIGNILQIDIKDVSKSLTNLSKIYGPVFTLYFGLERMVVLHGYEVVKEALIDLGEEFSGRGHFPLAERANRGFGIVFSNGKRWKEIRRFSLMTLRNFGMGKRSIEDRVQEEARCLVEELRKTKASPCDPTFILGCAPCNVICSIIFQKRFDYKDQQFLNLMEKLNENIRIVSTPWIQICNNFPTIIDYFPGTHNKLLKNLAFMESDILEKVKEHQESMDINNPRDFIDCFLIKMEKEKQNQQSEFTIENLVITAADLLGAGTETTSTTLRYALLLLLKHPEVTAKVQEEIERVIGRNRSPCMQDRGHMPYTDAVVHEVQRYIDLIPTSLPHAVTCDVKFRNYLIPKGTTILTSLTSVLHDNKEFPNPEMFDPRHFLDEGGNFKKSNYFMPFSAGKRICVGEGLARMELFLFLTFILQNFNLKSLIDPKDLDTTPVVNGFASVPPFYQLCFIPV
Protocol: Prior to injection into the analytical system, isolation of omeprazole, its metabolite and the deuterated IS (omeprazole –d3) from 200 µL of human Li-heparin plasma was performed by solid phase extraction performed on Oasis HBL 60mg 3cc cartridges (Waters, Zellik, Belgium). The elution from the cartridges was done with 1 mL of methanol and then the eluate was evaporated to dryness under a stream of nitrogen at approximatively +35°C. The residue was reconstituted with 0.2 mL of mobile phase and then centrifuged at about 3500 rpm for 5 minutes at +5°C. 120 µL of the clear supernatant was transferred into injection vials. […] Chromatographic separation was performed on a Zorbax XBD-C8 column (Agilent, Eindhoven, The Netherlands) (50 x 4.6 mm, 3.5 µm from Interchim) by using a Nexera HLPC system (Shimadzu, Kyoto, Japan) in isocratic elution mode.

CYP1A2 [1] = molecular target: T1, CYP1A2 (Homo sapiens, UniProt P05177); details: for tmax: median (min‐max); for R_AUC0‐t (metabolite‐over‐parent ratio): geometric mean (geometric CV%)
T1 sequence (P05177 1-516): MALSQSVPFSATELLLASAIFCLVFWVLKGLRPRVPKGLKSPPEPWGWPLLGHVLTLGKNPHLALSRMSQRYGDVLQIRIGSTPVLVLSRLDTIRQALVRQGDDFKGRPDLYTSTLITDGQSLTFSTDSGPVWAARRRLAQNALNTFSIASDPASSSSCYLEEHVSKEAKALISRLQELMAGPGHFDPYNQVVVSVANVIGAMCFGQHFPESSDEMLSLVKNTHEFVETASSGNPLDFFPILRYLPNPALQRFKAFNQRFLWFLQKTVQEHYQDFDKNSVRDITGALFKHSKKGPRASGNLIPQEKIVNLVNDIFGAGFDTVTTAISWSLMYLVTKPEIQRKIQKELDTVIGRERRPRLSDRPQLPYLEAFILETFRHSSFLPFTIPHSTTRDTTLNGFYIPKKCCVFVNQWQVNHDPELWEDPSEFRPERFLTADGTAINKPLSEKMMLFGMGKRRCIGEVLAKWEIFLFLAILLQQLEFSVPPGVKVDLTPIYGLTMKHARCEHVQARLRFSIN

CYP1A2 [2] = molecular target: T1, CYP1A2; test: clinical; details: male, plasma, oral; for half-life: t1/2, λz
[3] = GLPG1205 100 mg once a day + warfarin
[4] = GLPG1205 relative to placebo (ANOVA)
[5] = AUC0‐t, GLPG1205 100 mg once a day + caffeine, arithmetic mean (CV%)
[6] = AUC0‐t, Placebo + caffeine, arithmetic mean (CV%)
[7] = GLPG1205 100 mg once a day + caffeine 100 mg day 13, n = 14, arithmetic mean (CV%)
[8] = Placebo + caffeine 100 mg day 13, n = 14, arithmetic mean (CV%)
[9] = GLPG1205 100 mg once a day + caffeine

Chain of CYP2C9 (P11712 whole entry): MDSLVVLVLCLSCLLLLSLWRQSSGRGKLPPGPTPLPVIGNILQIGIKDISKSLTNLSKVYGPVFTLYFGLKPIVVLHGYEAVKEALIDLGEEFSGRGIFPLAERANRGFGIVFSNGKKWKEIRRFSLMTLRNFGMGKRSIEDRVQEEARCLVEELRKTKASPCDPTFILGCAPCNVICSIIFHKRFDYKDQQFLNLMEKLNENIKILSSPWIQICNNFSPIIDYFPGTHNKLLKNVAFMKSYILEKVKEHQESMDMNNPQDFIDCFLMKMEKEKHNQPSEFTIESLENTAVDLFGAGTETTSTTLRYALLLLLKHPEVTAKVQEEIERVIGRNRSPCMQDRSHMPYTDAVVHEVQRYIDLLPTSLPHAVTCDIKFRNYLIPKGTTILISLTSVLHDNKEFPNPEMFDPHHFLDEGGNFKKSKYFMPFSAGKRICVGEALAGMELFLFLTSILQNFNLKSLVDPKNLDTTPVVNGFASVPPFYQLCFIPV

Structure (SMILES): CC(=O)C[C@@H](c1ccccc1)c1c(O)c2ccccc2oc1=O [(S)‐Warfarin, (S)‐warfarin]
Cmax (CYP2C9; GLPG1205 100 mg once a day + warfarin 10 mg day 13, n = 14, arithmetic mean (CV%)): 0.481 (19.8) μg/mL
AUC0‐inf (CYP2C9; [3]): 17.5 (24.9) μg·h/mL
tmax (CYP2C9; [3]): 2.0 (0.5‐4.0) h
Cmax (CYP2C9; Placebo + warfarin 10 mg day 13, n = 14, arithmetic mean (CV%)): 0.453 (21.3) μg/mL
AUC0‐inf (CYP2C9; Placebo + warfarin): 15.1 (21.1) μg·h/mL
tmax (CYP2C9; Placebo + warfarin): 2.0 (0.5‐4.0) h

Structure (SMILES): Cn1c(=O)c2c(ncn2C)n(C)c1=O [Caffeine, caffeine]
tmax (CYP1A2 [1]; Placebo + caffeine): 1.0 (0.3‐3.0) h
AUC (CYP1A2 [2]; AUC0‐inf, GLPG1205 100 mg once a day + caffeine, arithmetic mean (CV%)): 17400 ng·h/mL
AUC (CYP1A2 [2]; AUC0‐inf, Placebo + caffeine, n = 12, arithmetic mean (CV%)): 18700 ng·h/mL
AUC (CYP1A2 [2]; [5]): 15700 ng·h/mL
AUC (CYP1A2 [2]; [6]): 16300 ng·h/mL
Cmax (CYP1A2 [2]; [7]): 2160 ng/mL
Cmax (CYP1A2 [2]; [8]): 2150 ng/mL
half-life (CYP1A2 [2]; GLPG1205 100 mg once a day + caffeine, arithmetic mean (CV%)): 4.9 h
half-life (CYP1A2 [2]; Placebo + caffeine, n = 13, arithmetic mean (CV%)): 5.73 h

Structure (SMILES): CC(=O)C[C@@H](c1ccccc1)c1c(O)c2ccc(O)cc2oc1=O [(S)‐7‐Hydroxywarfarin, (S)‐7‐hydroxywarfarin]
AUC0‐t, PE (90% CI) of least‐squares geometric means ratio (CYP2C9; human, in vivo): 1.15 (1.00‐1.32)
R_AUC0‐t, PE (90% CI) of least‐squares geometric means ratio (CYP2C9; in vivo): 1.01 (0.87‐1.19)

The remaining lines, values ahead:

tmax (CYP2C19; GLPG1205 100 mg once a day + omeprazole): 2.0 (1.0‐5.0) h
AUC0‐inf, PE (90% CI) of least‐squares geometric means ratio (CYP2C19; [4]): 1.36 (1.18‐1.58)
AUC0‐t, PE (90% CI) of least‐squares geometric means ratio (CYP2C19; [4]): 1.28 (1.10‐1.49)
Cmax, PE (90% CI) of least‐squares geometric means ratio (CYP2C19; [4]): 1.30 (1.03‐1.65)
t1/2, λz, PE (90% CI) of least‐squares geometric means ratio (CYP2C19; [4]): 1.09 (0.97‐1.22)
tmax (CYP2C19; Placebo + omeprazole): 3.0 (2.0‐5.0) h
AUC (CYP2C19; human, 20 mg, AUC0‐inf, Placebo + omeprazole): 520 ng·h/mL
AUC (CYP2C19; human, 20 mg, AUC0‐t, Placebo + omeprazole): 486 ng·h/mL
AUC (CYP2C19; human, AUC0‐inf, GLPG1205 100 mg once a day + omeprazole): 548 ng·h/mL
AUC (CYP2C19; human, AUC0‐t, GLPG1205 100 mg once a day + omeprazole): 563 ng·h/mL
Structure (SMILES): COc1ccc2[nH]c([S+]([O-])Cc3ncc(C)c(OC)c3C)nc2c1 (centres unmarked) [Omeprazole, omeprazole, reference compound]

AUC0‐inf, PE (90% CI) of least‐squares geometric means ratio (CYP2C19; human, in vivo): 1.08 (0.98‐1.20)
AUC0‐t, PE (90% CI) of least‐squares geometric means ratio (CYP2C19; human, in vivo): 1.08 (0.96‐1.21)
R_AUC0‐inf, PE (90% CI) of least‐squares geometric means ratio (CYP2C19; in vivo): 0.83 (0.77‐0.89)
R_AUC0‐t, PE (90% CI) of least‐squares geometric means ratio (CYP2C19; in vivo): 0.84 (0.79‐0.89)
Structure (SMILES): COc1ccc2nc([S+]([O-])Cc3ncc(CO)c(OC)c3C)[nH]c2c1 (centres unmarked) [5‐Hydroxyomeprazole, 5‐hydroxyomeprazole]

R_AUC0‐t (metabolite‐over‐parent ratio) (CYP1A2 [1]; [9]): 0.538 (27.7)
tmax (CYP1A2 [1]; [9]): 7.0 (0.3‐12.0) h
AUC0‐t, PE (90% CI) of least‐squares geometric means ratio (CYP1A2 [1]; [4]): 0.96 (0.79‐1.16)
Cmax, PE (90% CI) of least‐squares geometric means ratio (CYP1A2 [1]; [4]): 1.08 (0.97‐1.21)
R_AUC0‐t, PE (90% CI) of least‐squares geometric means ratio (CYP1A2 [1]; [4]): 1.00 (0.87‐1.15)
R_AUC0‐t (metabolite‐over‐parent ratio) (CYP1A2 [1]; Placebo + caffeine): 0.539 (30.5)
AUC (CYP1A2 [2]; [5]): 8600 ng·h/mL
AUC (CYP1A2 [2]; [6]): 8430 ng·h/mL
Cmax (CYP1A2 [2]; [7]): 634 ng/mL
Cmax (CYP1A2 [2]; [8]): 577 ng/mL
Structure (SMILES): Cn1c(=O)[nH]c2ncn(C)c2c1=O [Paraxanthine, paraxanthine]
